In patent US6951857B2, “6-Azauracil derivatives as IL-5 inhibitors” (priority 1997, dated 2005) one finds inhibition and melting point data, which are given here for eleven molecules.

The structures appear in SMILES notation.

The test system of one data set is IL-5 production. The data set can be described thus: In vitro inhibition of IL-5 production in human blood. It counts as cell-based. Particulars: test dose 1×10^−6 M; human whole blood stimulated with phytohemagglutinin, 48 hours, ELISA. As for the experimental part: In Vitro Inhibition of IL-5 Production in Human Blood
Human Whole Blood Stimulation
Peripheral blood from healthy male donors was drawn into heparinized syringes (12.5 U heparin/ml). Blood samples were three-fold diluted in RMPI 1640 medium (Life Technologies, Belgium) supplemented with 2 mM L-glutamine, 100 U/ml penicillin and 100 μg/ml streptomycin, and 300 μl fractions were distributed in 24-well multidisc plates. Blood samples were preincubated (60 minutes at 37° C.) in a humidified 6% CO2-atmosphere with 100 μl of drug solvent (final concentration 0.02% dimethylsulfoxide in RPMI 1640) or with 100 μl of an appropriate dose of test compound before being stimulated by the addition of 100 μl of phytohemagglutinin HA17 (Murex, UK) at a final concentration of 2 μg/ml. After 48 hours, cell-free supernatant fluids were collected by centrifugation and stored at −70° C. until tested for the presence of IL-5.
IL-5 measurements were conducted as described in Van Wauwe et al. (1996, Inflamm Res, 45, 357-363) on page 358 using ELISA.
Table 8 lists the percentage inhibition of IL-5 production (column “% inhibition”) at a test dose of 1×10^−6 M, or in case the percentage inhibition is marked with an “*” 1×10^−5 M, for the compounds of the present invention including compounds of formula (I) which have been disclosed in U.S. Pat. No. 4,631,278 (Ref. A) or U.S. Pat. No. 4,767,760 (Ref: B) as summarized in table 7.
(In general: ELISA stands for enzyme-linked immunosorbent assay.)

As for `CON(C)C(=O)C(c1ccc(Cl)cc1)c1ccc(-n2ncc(=O)[nH]c2=O)cc1Cl` (racemic) [1.6, (±)-2-chloro-α-(4-chlorophenyl)-N-methoxy-N-methyl-4-(4,5-dihydro-3,5-dioxo-1,2,4-triazin-2(3H)-yl)benzeneacetamide], testing at 1 µM with IL-5 production gave an inhibition of 49%.

With `CC(C#N)(c1ccc(Cl)c(C(F)(F)F)c1)c1c(Cl)cc(-n2ncc(=O)[nH]c2=O)cc1Cl` (racemic) [1.7, (±)-2,6-dichloro-α-[4-chloro-3-(trifluoromethyl)phenyl]-4-(4,5-dihydro-3,5-dioxo-1,2,4-triazin-2(3H)-yl)-α-methylbenzeneacetonitrile], the inhibition (commonly the share of the control response that was lost under treatment) at 1 µM with IL-5 production turned out to be 92%.

`CC(C#N)(c1ccc(Cl)cc1)c1c(Cl)cc(-n2ncc(=O)[nH]c2=O)cc1Cl` (racemic) [1.11, (±)-2,6-dichloro-α-(4-chlorophenyl)-4-(4,5-dihydro-3,5-dioxo-1,2,4-triazin-2(3H)-yl)-α-methylbenzeneacetonitrile] displayed an inhibition at 1 µM in the data set on IL-5 production of 12%.

For `CNC(=O)C(C)(c1ccc(Cl)cc1)c1ccc(-n2ncc(=O)[nH]c2=O)cc1Cl` (racemic) [1.14, (±)-2-chloro-α-(4-chlorophenyl)-4-(4,5-dihydro-3,5-dioxo-1,2,4-triazin-2(3H)-yl)-α,N-dimethylbenzeneacetamide], in the data set on IL-5 production, the inhibition at 1 µM was found to be 9%.

Take `O=C(c1nc2ccccc2s1)C(c1ccc(Cl)cc1)c1ccc(-n2ncc(=O)[nH]c2=O)cc1Cl` (racemic) [1.20, (±)-2-[4-[2-(2-benzothiazolyl)-1-(4-chlorophenyl)-2-oxoethyl]-3-chlorophenyl]-1,2,4-triazin-3,5(2H,4H)-dione]: at 1 µM the inhibition in the data set with IL-5 production was 80%.

In the case of `CC(C(N)=S)(c1ccc(Cl)cc1)c1ccc(-n2ncc(=O)[nH]c2=O)cc1Cl` (racemic) [1.21, (±)-2-chloro-α-(4-chlorophenyl)-α-methyl-4-(4,5-dihydro-3,5-dioxo-1,2,4-triazin-2(3H)-yl)benzeneethanethioamide], testing at 1 µM with IL-5 production gave an inhibition of 33%.

The molecule `CC(C#N)(c1ccc(Cl)c(C(F)(F)F)c1)c1cccc(-n2ncc(=O)[nH]c2=O)c1Cl` (racemic) [1.36, (±)-4-chloro-α-[2-chloro-3-(4,5-dihydro-3,5-dioxo-1,2,4-triazin-2(3H)-yl)phenyl]-α-methyl-3-(trifluoromethyl)benzeneacetonitrile] registered an inhibition at 1 µM with IL-5 production of 44%.

Regarding `CN(C)CCCC(C#N)(c1ccc(Cl)cc1)c1ccc(-n2ncc(=O)[nH]c2=O)cc1Cl` (racemic) [1.58, (±)-2-chloro-α-(4-chlorophenyl)-4-(4,5-dihydro-3,5-dioxo-1,2,4-triazin-2(3H)-yl)-α-[3-(dimethylamino)propyl]-benzeneacetonitrile], the melting point (in general, the temperature of the solid-liquid transition) worked out at 140 °C. Further, 1 µM produced 28% inhibition in the data set on IL-5 production.

As to `CC(C#N)(c1ccc(Cl)c(C(F)(F)F)c1)c1cc(-n2ncc(=O)[nH]c2=O)ccc1Cl` (stereo not shown) [1.35], the inhibition at 1 µM in the data set with IL-5 production turned out to be 33%.

In turn, `N#CC(c1ccc(Cl)c(C(F)(F)F)c1)c1cc(-n2ncc(=O)[nH]c2=O)ccc1Cl` (stereo not shown) [1.37] came in with an inhibition at 1 µM in the data set on IL-5 production of 12%.

In turn, `N#CC(c1ccc(Cl)cc1)c1ccc(-n2ncc(=O)[nH]c2=O)cc1` (stereo not drawn) [1.41, α-(4-chlorophenyl)-4-(4,5-dihydro-3,5-dioxo-1,2,4-triazin-2(3H)-yl) benzeneacetonitrile] showed a melting point of 206.3 °C. Besides, testing at 1 µM in the data set on IL-5 production gave an inhibition of 13%.
